Where two headings read alike, the source gives them in different places.
Assays:
SARS-CoV-2 Macro1 [1] = biological target: T1, SARS-CoV-2 Macro1 (Severe acute respiratory syndrome coronavirus 2, UniProt P0DTD1); assay: biochemical; assay type: binding
MacroD1 [2] = biological target: T2, MacroD1 (Homo sapiens, UniProt Q9BQ69); assay: biochemical; assay type: binding
human MacroD2 [3] = biological target: T3, human MacroD2 (Homo sapiens, UniProt A1Z1Q3); assay: biochemical; assay type: binding
VEEV Macro [4] = biological target: T4, VEEV Macro (Venezuelan equine encephalitis virus, UniProt P27282); assay: biochemical; assay type: binding
CHIKV Macro [5] = biological target: T5, CHIKV Macro (Chikungunya virus, UniProt Q8JUX6); assay: biochemical; assay type: binding
PARP9 Macro2 = PARP9 Macro2 (Homo sapiens, UniProt Q8IXQ6); assay: biochemical; assay type: binding
SARS Macro1 = SARS Macro1 (Severe acute respiratory syndrome coronavirus 2, UniProt P0DTD1); assay type: biochemical, SARS-CoV-2
MacroD1 [6] = biological target: T2, MacroD1; assay type: biochemical
MacroD1 [7] = biological target: T2, MacroD1; settings: cited from earlier work
SARS-CoV-2 Macro1 [8] = biological target: T1, SARS-CoV-2 Macro1; assay type: binding
MacroD1 [9] = biological target: T2, MacroD1; assay type: binding
human MacroD2 [10] = biological target: T3, human MacroD2; assay type: binding
VEEV Macro [11] = biological target: T4, VEEV Macro; assay type: binding
CHIKV Macro [12] = biological target: T5, CHIKV Macro; assay type: binding

T4 sequence (P27282 1330-1489 limits assumed): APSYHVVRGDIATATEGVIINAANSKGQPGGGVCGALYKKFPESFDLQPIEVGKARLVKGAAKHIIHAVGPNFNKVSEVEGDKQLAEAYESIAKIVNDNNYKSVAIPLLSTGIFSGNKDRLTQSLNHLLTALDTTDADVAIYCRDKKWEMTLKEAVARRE
T5 sequence (Q8JUX6 1334-1493 limits assumed): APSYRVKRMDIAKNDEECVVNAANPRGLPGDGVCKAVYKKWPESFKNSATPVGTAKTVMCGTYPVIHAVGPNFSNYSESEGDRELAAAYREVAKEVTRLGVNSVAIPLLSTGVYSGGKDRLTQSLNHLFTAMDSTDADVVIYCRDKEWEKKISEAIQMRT
T3 sequence (A1Z1Q3 59-240 limits assumed): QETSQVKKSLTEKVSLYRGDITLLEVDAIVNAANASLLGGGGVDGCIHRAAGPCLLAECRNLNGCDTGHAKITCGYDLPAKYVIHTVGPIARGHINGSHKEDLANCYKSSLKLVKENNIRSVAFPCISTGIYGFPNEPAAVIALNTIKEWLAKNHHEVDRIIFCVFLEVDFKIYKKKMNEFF
T2 sequence (Q9BQ69 141-322 limits assumed): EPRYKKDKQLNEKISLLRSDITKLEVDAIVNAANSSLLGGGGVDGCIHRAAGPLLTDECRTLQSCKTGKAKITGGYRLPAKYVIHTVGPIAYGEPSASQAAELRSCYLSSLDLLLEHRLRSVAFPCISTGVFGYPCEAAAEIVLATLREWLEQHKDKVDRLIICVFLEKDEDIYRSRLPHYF

[N-]=[N+]=NC1OC(COP(=O)(O)OP(=O)(O)OCC2OC(n3cnc4c(N)ncnc43)C(O)C2O)C(O)C1O (stereo not drawn) [ADPr-N3]
IC50 (SARS-CoV-2 Macro1 [1]): 7230 ± 940 nM | IC50 Fold Decrease Relative to ADPr: SARS Macro1 (SARS-CoV-2 Macro1 [1]): ~2 fold

N#C[C@@]1(c2ccc3c(N)ncnn23)O[C@H](CO)[C@@H](O)[C@H]1O [GS-441524]
IC50 (MacroD1 [2]): > 100000 nM | IC50 (human MacroD2 [3]): > 100000 nM | IC50 (VEEV Macro [4]): > 100 µM | IC50 (CHIKV Macro [5]): > 100 µM | IC50 (PARP9 Macro2): > 100 µM

Nc1ncnc2c1ncn2[C@@H]1O[C@H](COP(=O)(O)OP(=O)(O)OC[C@H]2O[C@H](Oc3ccc([N+](=O)[O-])cc3)[C@H](O)[C@@H]2O)[C@@H](O)[C@H]1O [pNP-ADPr, ADP-ribosylated p-nitrophenol]
IC50 (SARS-CoV-2 Macro1 [1]): 370 nM | IC50 Fold Decrease Relative to ADPr: SARS Macro1 (SARS-CoV-2 Macro1 [1]): 40 fold | IC50 (MacroD1 [2]): 960 ± 70 nM | IC50 (human MacroD2 [3]): 150 ± 10 nM | IC50 (VEEV Macro [4]): 10.7 ± 0.9 µM | IC50 (CHIKV Macro [5]): 22.8 ± 5.7 µM | IC50 (PARP9 Macro2): 4.5 ± 0.4 µM | MAR hydrolysis activity of SARS Macro1 in the presence of inhibitor (SARS Macro1): lowered MAR hydrolysis activity | MAR hydrolysis activity of MacroD1 in the presence of inhibitor (MacroD1 [6]): lowered MAR hydrolysis activity

Nc1ncnc2c1ncn2[C@@H]1O[C@H](COP(=O)(O)OP(=O)(O)OC[C@H]2OC(O)[C@H](O)[C@@H]2O)[C@@H](O)[C@H]1O (stereo partly drawn) [ADPr, adenine diphosphate ribose]
IC50 (MacroD1 [2]; read-out: IC50 MacroD1): 1420 ± 220 nM | IC50 (VEEV Macro [4]; read-out: IC50 VEEV Macro): 18.3 ± 2.8 µM | Kd (MacroD1 [7]): 720 nM

Nc1ncnc2c1ncn2[C@@H]1O[C@H](COP(=O)(O)O)[C@@H](O)[C@H]1O[C@@H]1O[C@H](COP(=O)(O)O)[C@@H](O)[C@H]1O [iso-ADPr]
Competition with the tracer in macrodomain binding (SARS-CoV-2 Macro1 [1]): did not compete | Competition with the tracer in macrodomain binding (MacroD1 [2]): did not compete | Competition with the tracer in macrodomain binding (human MacroD2 [3]): did not compete | Competition with the tracer in macrodomain binding (VEEV Macro [4]): did not compete | Competition with the tracer in macrodomain binding (CHIKV Macro [5]): did not compete | Competition with the tracer in macrodomain binding (PARP9 Macro2): did not compete

CN(C)c1ccc2c(c1)Oc1cc(N(C)C)ccc1C21OC(=O)c2cc(C(=O)NCCCCCCNC(=O)CCc3cn([C@H]4O[C@H](COP(=O)(O)OP(=O)(O)OC[C@H]5O[C@@H](n6cnc7c(N)ncnc76)[C@H](O)[C@@H]5O)[C@@H](O)[C@H]4O)nn3)ccc21 [TAMRA-ADPr]
mP shift (SARS-CoV-2 Macro1 [8]): over 110 mP | mP shift (MacroD1 [9]): more than 100 mP | mP shift (human MacroD2 [10]): more than 100 mP | mP shift (VEEV Macro [11]): ~70 mP | mP shift (CHIKV Macro [12]): ~70 mP

Nc1ncnc2c1ncn2[C@@H]1O[C@H](COP(=O)(O)OP(=O)(O)OC[C@H]2O[C@H](Oc3ccc4c(C(F)(F)F)cc(=O)oc4c3)[C@H](O)[C@@H]2O)[C@@H](O)[C@H]1O [TFMU-ADPr, ADP-ribosylated trifluoromethyl umbelliferone]
IC50 (SARS-CoV-2 Macro1 [1]): 590 nM | IC50 Fold Decrease Relative to ADPr: SARS Macro1 (SARS-CoV-2 Macro1 [1]): 25 fold | IC50 (MacroD1 [2]): 290 ± 20 nM | IC50 (human MacroD2 [3]): 90 ± 20 nM | IC50 (VEEV Macro [4]): 4.24 ± 0.36 µM | IC50 (CHIKV Macro [5]): 37.6 ± 12.3 µM | IC50 (PARP9 Macro2): 10.9 ± 1.1 µM | MAR hydrolysis activity of SARS Macro1 in the presence of inhibitor (SARS Macro1): lowered MAR hydrolysis activity | MAR hydrolysis activity of MacroD1 in the presence of inhibitor (MacroD1 [6]): lowered MAR hydrolysis activity
